The values below come from ChEMBL document CHEMBL1201862, “PubChem BioAssay data set” (2004).

SMILES strings stand for the structures.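 A five-concentration, 48-hour dose response in 96-well plates underlies each endpoint, interpolated linearly between surrounding concentrations. GI50 is the concentration that inhibits growth by half.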 Activity calls are given as the source filed them. Cut-off read from the data, not from the text of the source: active = GI50 up to about 1.1 µM and inactive = higher.

Common to all, as to assay: inhibition of tumour cell growth, NCI panel, 48 h
The subject of assay [1] is NCI-H460.
The subject of assay [2] is A549.
For assay [3], the system named is SK-OV-3.
In assay [4] the test system is SK-MEL-2.
For assay [5], the system named is UACC-62.
Assay [6] deals with 786-0.
Assay [7] has as its system HT-29.
Assay [8] concerns TK-10.
Assay [9] relates to CCRF-CEM.
Assay [10] has as its system OVCAR-3.
Assay [11] concerns UACC-257.
The test system of assay [12] is M14.
Assay [13] relates to NCI-H226.
The test system of assay [14] is HCT-15.
For assay [15], the system named is RPMI-8226.
The test system of assay [16] is SW-620.
Assay [17] deals with MOLT-4.
Assay [18] relates to SK-MEL-5.
The test system of assay [19] is U-251.
For assay [20], the system named is SNB-75.

In the case of `NC(CCCCNCc1ccccc1)C(=O)O` (stereo not given), the GI50 in assay [1], in [2], in [3], in assay [4], in [5] and in [6] was > 100 µM (inactive) throughout. For the same molecule, the GI50 in [7], in assay [8], in assay [9], in assay [10], in assay [11] and in assay [12] was > 100 µM (inactive) in each case. In addition, the GI50 in assay [13] is > 100 µM (inactive); in assay [14], above 100 µM; in assay [15] it was > 100 µM (inactive); in assay [16], > 100 µM (inactive); in [17], > 100 µM (inactive); in assay [18], > 100 µM (inactive). In addition, the GI50 in [19] and in assay [20] was > 100 µM (inactive) each time.
Consider `S=c1c2nc[nH]c2ncn1CCSC1=NC=NC2=NC=NC21` (stereo not given), for which the GI50 in [1] is > 100 µM (inactive); in [2], > 100 µM (inactive); in [3], 52.2 µM (inactive); in assay [4] it was > 100 µM (inactive); in [5], 79.8 µM (inactive); in assay [6], 71 µM (inactive). Moreover, the GI50 was > 100 µM (inactive) in assay [7]; > 76.2 µM (inactive) in [8]; > 82.2 µM (inactive) in assay [9]; 57.1 µM (inactive) in [10]; > 81.3 µM (inactive) in assay [11]; 43.8 µM (inactive) in [12]. The GI50 in assay [13] is > 100 µM (inactive); in [14], above 100 µM; in [15], > 85.5 µM (inactive); in assay [16] it was > 100 µM (inactive); in assay [17], 70.5 µM (inactive); in assay [18], > 100 µM (inactive). The GI50 was > 100 µM (inactive) in assay [19] and > 66.1 µM (inactive) in [20].
As for `CS(=O)(=O)N/N=C/CN1C(=O)c2ccccc2C1=O`, the GI50 in assay [1], in assay [2], in assay [3], in assay [4], in assay [5] and in assay [6] was > 100 µM (inactive) in each case. The GI50 in [7], in assay [8], in assay [9], in assay [10], in assay [11] and in assay [12] was > 100 µM (inactive) throughout. The GI50 in assay [13] was > 100 µM (inactive); in [14] it was above 100 µM; in assay [15], > 100 µM (inactive); in assay [16], > 100 µM (inactive); in [17], > 100 µM (inactive); in assay [18], > 100 µM (inactive). Moreover, the GI50 in assay [19] and in assay [20] was > 100 µM (inactive) each time.
For the molecule `Cc1c(N2C(=O)/C(=C/c3ccc(Cl)cc3)N=C2c2ccccc2)c(=O)n(-c2ccccc2)n1C`, the GI50 in assay [1] is 31 µM (inactive); in assay [2], 28.8 µM (inactive); in assay [3], 36.5 µM (inactive); in [4], 16.7 µM (inactive); in assay [5], 21.1 µM (inactive); in assay [6] it was 46.8 µM (inactive). In addition, the GI50 is 26.6 µM (inactive) in assay [7]; 20.5 µM (inactive) in assay [8]; 28.3 µM (inactive) in assay [9]; 27.1 µM (inactive) in assay [10]; 18.3 µM (inactive) in [11]; 36.8 µM (inactive) in assay [12]. The GI50 in assay [13] is 30.7 µM (inactive); in assay [14], 3.2 µM; in assay [15], 17.8 µM (inactive); in [16], 31.9 µM (inactive); in [17] it was 21.2 µM (inactive); in [18], 17.8 µM (inactive). The GI50 in [19] is 28.2 µM (inactive); in assay [20], 22.5 µM (inactive).
As for `N#CC(=S)Nc1ccc(F)cc1`, the GI50 in assay [1] was 55.3 µM (inactive); in assay [2], 33.6 µM (inactive); in [3], > 100 µM (inactive); in [4], > 100 µM (inactive); in assay [5] it was 40.2 µM (inactive); in [6], 53.8 µM (inactive). Besides, the GI50 in assay [7] is 67.8 µM (inactive); in [8] it was 39.1 µM (inactive); in [9], 22.4 µM (inactive); in assay [10] it was 56.4 µM (inactive); in [11], 30.6 µM (inactive); in [12], 54.3 µM (inactive). The GI50 was 78.5 µM (inactive) in [13]; 88.7 µM in assay [14]; 8.22 µM (inactive) in assay [15]; 60.8 µM (inactive) in assay [16]; 31.3 µM (inactive) in [17]; 17 µM (inactive) in assay [18]. Moreover, the GI50 in [19] is 34.4 µM (inactive); in assay [20] it was > 100 µM (inactive).
As to `COC(=O)N1C=Cc2c(c(C)c3c([nH]c4ccccc43)c2C)C1C` (stereo not given), the GI50 in assay [1] is 22.5 µM (inactive); in assay [2], 18 µM (inactive); in assay [3], 27.4 µM (inactive); in assay [4], 18.3 µM (inactive); in assay [5] it was 18 µM (inactive); in [6] it was 13.2 µM (inactive). The GI50 in assay [7] was 11.3 µM (inactive); in assay [8] it was 19.6 µM (inactive); in [9], 14.8 µM (inactive); in [10] it was 16.3 µM (inactive); in assay [11] it was 17.3 µM (inactive); in assay [12], 29.6 µM (inactive). Moreover, the GI50 was 17.6 µM (inactive) in [13]; 10.6 µM in assay [14]; 7.62 µM (inactive) in [15]; 17.7 µM (inactive) in assay [16]; 5.97 µM (inactive) in [17]; 15.3 µM (inactive) in [18]. Besides, the figures for the GI50 in assay [19] and in [20] were 16 µM (inactive) and 15.3 µM (inactive), respectively.
With `COc1cc(/C=C/C(=O)CC(=O)/C=C/c2ccc(O)c(OC)c2)ccc1O` [CURCUMIN], the GI50 is 8.07 µM (inactive) in assay [1]; 12.8 µM (inactive) in assay [2]; 8.91 µM (inactive) in [3]; 16.5 µM (inactive) in assay [4]; 6.49 µM (inactive) in assay [5]; 3.33 µM (inactive) in assay [6]. Moreover, the GI50 in assay [7] was 5.09 µM (inactive); in assay [8], 14.2 µM (inactive); in [9], 3.03 µM (inactive); in assay [10], 6.64 µM (inactive); in [11] it was 11.5 µM (inactive); in assay [12], 3.78 µM (inactive). Moreover, the GI50 was 18.8 µM (inactive) in assay [13]; 4.12 µM in [14]; 2.09 µM (inactive) in assay [15]; 4.19 µM (inactive) in [16]; 4.68 µM (inactive) in [17]; 8.81 µM (inactive) in assay [18]. In addition, the figures for the GI50 in [19] and in assay [20] were 4.72 µM (inactive) and 6.84 µM (inactive), respectively.
On to `CCOC(=O)/C=C(\C(=O)OCC)n1ccc(=O)n(Cc2cnnn2CCCCOC(C)=O)c1=O`, for which the GI50 is 8.53 µM (inactive) in assay [1]; 19.9 µM (inactive) in [2]; 34 µM (inactive) in assay [3]; 14.7 µM (inactive) in [4]; 6.14 µM (inactive) in assay [5]; 3.46 µM (inactive) in [6]. Further, the GI50 in assay [7] is 9.08 µM (inactive); in [8], 4.54 µM (inactive); in assay [9], 1.99 µM (inactive); in [10], 5.3 µM (inactive); in [11], 11.3 µM (inactive); in assay [12], 17.5 µM (inactive). The GI50 is 17.6 µM (inactive) in assay [13]; 3.73 µM in assay [14]; 6.68 µM (inactive) in [15]; 2.05 µM (inactive) in assay [16]; 2.49 µM (inactive) in [17]; 13.5 µM (inactive) in [18]. Besides, the GI50 was 27.3 µM (inactive) in [19] and 14 µM (inactive) in assay [20].
As to `COc1ccc(CC2(O)C3CC4CCC2C4C3)cc1` (stereo not given), the GI50 in assay [1] was 68.5 µM (inactive); in assay [2], 79.4 µM (inactive); in assay [3] it was > 100 µM (inactive); in assay [4], > 100 µM (inactive); in [5], > 100 µM (inactive); in [6] it was > 100 µM (inactive). For the same molecule, the GI50 is 58.1 µM (inactive) in assay [7]; 69.3 µM (inactive) in [8]; 42 µM (inactive) in assay [9]; > 100 µM (inactive) in [10]; 38.5 µM (inactive) in assay [11]; > 100 µM (inactive) in assay [12]. Moreover, the GI50 in assay [13] was 88.1 µM (inactive); in [14], above 100 µM; in assay [15], > 100 µM (inactive); in assay [16] it was > 100 µM (inactive); in assay [17], 45 µM (inactive); in [18], 31.9 µM (inactive). Besides, the GI50 was > 100 µM (inactive) in [19] and 48.9 µM (inactive) in assay [20].
Turning to `CCCCCCCCCCCCOCCOCCOCCOCCOCCOCC(=O)NC(Cc1ccccc1)C(=O)Oc1ccc([N+](=O)[O-])cc1` (stereo not given), the GI50 in assay [1] was 30.5 µM (inactive); in assay [2] it was 43 µM (inactive); in assay [3], 64.9 µM (inactive); in assay [4], 23.8 µM (inactive); in [5], 21.8 µM (inactive); in [6] it was 34.9 µM (inactive). Further, the GI50 in [7] is 33.4 µM (inactive); in assay [8] it was 38.3 µM (inactive); in [9], 31.7 µM (inactive); in [10], 22.9 µM (inactive); in [11] it was 29.9 µM (inactive); in assay [12] it was 31.5 µM (inactive). The GI50 in assay [13] was 59 µM (inactive); in [14] it was 37 µM; in [15] it was 23.2 µM (inactive); in assay [16], 36.2 µM (inactive); in assay [17] it was 23.2 µM (inactive); in assay [18] it was 31.8 µM (inactive). In addition, the values for the GI50 in assay [19] and in assay [20] were 34.2 µM (inactive) and 27 µM (inactive), respectively.
